Values of other authors, collected in patent EP2103596A1, “Process for the preparation of N-(phenylethyl) anilines salts and solvates thereof useful as serotonin 5-HT6 antagonists” (priority 2008, dated 2009).
Where two headings read alike, the source gives them in different places.

Tests used:
[1] = mice, sub-chronic dosing (10 and 30 mg/kg qd, i.p.)
[2] = system: more than 70 tested receptors; conditions: selectivity versus more than 70 tested receptors
[3] = rats, sub-chronic dosing (10 and 30 mg/kg qd, i.p.)
[4] = target: CYP2D6 (Homo sapiens, UniProt P10635)
Sequence of CYP2D6 (P10635 whole entry): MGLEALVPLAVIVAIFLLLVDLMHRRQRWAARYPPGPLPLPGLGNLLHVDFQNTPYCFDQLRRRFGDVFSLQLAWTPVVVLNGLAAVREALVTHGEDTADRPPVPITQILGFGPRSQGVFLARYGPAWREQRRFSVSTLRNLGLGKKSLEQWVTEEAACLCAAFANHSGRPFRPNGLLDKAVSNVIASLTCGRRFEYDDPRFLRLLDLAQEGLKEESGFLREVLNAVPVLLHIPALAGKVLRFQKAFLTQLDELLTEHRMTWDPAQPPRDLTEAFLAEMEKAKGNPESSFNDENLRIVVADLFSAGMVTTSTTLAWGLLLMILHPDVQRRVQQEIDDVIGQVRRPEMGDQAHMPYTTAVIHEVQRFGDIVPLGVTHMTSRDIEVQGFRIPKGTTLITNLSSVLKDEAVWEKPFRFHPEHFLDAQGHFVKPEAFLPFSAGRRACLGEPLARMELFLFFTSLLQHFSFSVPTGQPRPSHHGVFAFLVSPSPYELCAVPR

For COc1cc(Cl)cc(C(C)Nc2cc(N3CCNCC3)ccc2S(C)(=O)=O)c1OC.Cl (stereo not shown) [Compound A, [1-(5-Chloro-2,3-dimethoxy-phenyl)-ethyl]-(2-methanesulfonyl-5-piperazin-1-yl-phenyl)-amine hydrochloride salt], the “stability (HLM)” value is listed as greater than 90 min, the body weight [1] is listed as “significant reduction” and the food intake [1] is listed as “significant reduction”. For the same compound, the safety margin [2] was greater than 100 fold, the body weight [3] was “significant reduction” and the food intake [3] was “significant reduction”. For the same compound, the IC50 [4] was 7.8 µM.
